Patent US20050020662A1, “Inhibition of PKC to treat permability failure” (Joslin Diabetes Center, Inc., a Massachusetts corporation, priority 1999, published 2005)

Test system: PKC
Assay: PKC activity of primary human mesothelial cells
Type: cell-based
Conditions: human mesothelial cells exposed to vitamin E, low or high (150 mM) glucose, presence or absence of PMA (FIG. 2)
Procedure: The PKC activity was determined in the presence or absence or PMA, an activator of PKC. […] The mesothelial cells were exposed to low or high (150 mM) levels of glucose in the presence or absence of PMA, an activator of PKC, and the presence or absence of vitamin E, a PKC inhibitor. […] The PKC activity was determined in the presence or absence or PMA, an activator of PKC. […] These concentrations of glucose are standard for dialysis. […] It has been reported that activation of these pathways increases fibrosis. […] Therefore, inhibition of PKC can decrease fibrosis and reduce or prevent permeability failure of the peritoneal membrane.

**Q.** vitamin E was tested. Which PKC activity did it give?
**A.** The PKC activity was “decrease of PKC activity”.
